This passage reports Emax and EC50 results from patent US9416141B2 (University of Washington through its Center for …, priority 2012, dated 2016).

Where a name gives a salt, the structure may show the parent alone.

The subject of the assay is hair cells. The assay can be described thus: Hair cell toxicity assay in zebrafish (neomycin-induced hair cell death, DASPEI staining of neuromasts). Type of assay: in vivo. As to conditions: Danio rerio; for Emax at 25 µM: maximum observed @ 25 μM test compound; for EC50: zebrafish larvae 5-7 dpf, 1 h pre-treatment, then 200 micromolar neomycin + test compound 30 min, read-out: HC50 (concentration that would produce 50% hair cell survival); for Emax at 2.8 µM: maximum observed @ 2.8 μM test compound; for Emax at 8.3 µM: maximum observed @ 8.3 μM test compound. The method, boiled down: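 Zebrafish larvae 5-7 dpf pre-treated 1 h with compound (0.010-25 μM), then 30 min with 200 μM neomycin plus compound. DASPEI stained 10 neuromasts per fish, scored 0-2 (total 0-20), normalised to vehicle controls as % hair cell survival. HC50 linearly interpolated if survival reached ≥50%; HCmax is maximum survival.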

Setting [1] is: 200 micromolar neomycin, read-out: Max HC Protection (HCmax, % hair cell survival).

Regarding `C[N+]1(C2CCc3c(sc(NC(=O)Nc4ccc(Cl)cc4)c3C(N)=O)C2)CCC1` (stereo not shown) [Example 170, 1-{3-Carbamoyl-2-[3-(4-chlorophenyl)ureido]-4,5,6,7-tetrahydrobenzo[b]thiophen-6-yl}-1-methylazetidin-1-ium iodide], the EC50 is 1000 to 10000 nM. Further, under setting [1], the Emax at 25 µM stood at 85%.

As for `CC(C)(C)C[N+]1(C)CCc2c(sc(NC(=O)Nc3ccc(Cl)cc3)c2C(N)=O)C1` (stereo not shown) [Example 171, 3-Carbamoyl-2-[3-(4-chlorophenyl)ureido]-6-methyl-6-neopentyl-4,5,6,7-tetrahydrothieno[2,3-c]pyridin-6-ium iodide], the EC50 was less than 1000 nM. Further, under setting [1], the Emax at 2.8 µM is 92%. With `CC[N+]1(C)CCc2c(ccc(NC(=O)Nc3ccc(Cl)cc3)c2C(N)=O)C1` (stereo not shown) [Example 172, 5-Carbamoyl-6-[3-(4-chlorophenyl)ureido]-2-ethyl-2-methyl-1,2,3,4-tetrahydroisoquinolin-2-ium iodide], the EC50 is greater than 10000 nM. Moreover, the Emax at 25 µM under setting [1] is 66%. With `CC[N+]1(C)CCCc2c(sc(NC(=O)Nc3ccc(Cl)cc3)c2C(N)=O)C1` (stereo not shown) [Example 173, 3-Carbamoyl-2-[3-(4-chlorophenyl)ureido]-7-ethyl-7-methyl-5,6,7,8-tetrahydro-4H-thieno[2,3-c]azepin-7-ium iodide], the EC50 was 1000 to 10000 nM. For the same molecule, the Emax at 25 µM under setting [1] turned out to be 102%.

For `CC[N+]1(C)CCc2sc(NC(=O)Nc3ccc(Cl)cc3)c(C(N)=O)c2CC1` (stereo not shown) [Example 174, 3-Carbamoyl-2-[3-(4-chlorophenyl)ureido]-6-ethyl-6-methyl-5,6,7,8-tetrahydro-4H-thieno[2,3-d]azepin-6-ium iodide], the EC50 is 1000 to 10000 nM. The Emax at 25 µM under setting [1] is 74%. On the same counts, the results for `CC(C)C[N+]1(C)CCc2c(sc(NC(=O)Nc3ccc4ccccc4c3)c2C(N)=O)C1` (stereo not shown) [Example 175, 3-Carbamoyl-6-isobutyl-6-methyl-2-[3-(naphthalen-2-yl)ureido]-4,5,6,7-tetrahydrothieno[2,3-c]pyridin-6-ium iodide] are less than 1000 nM and 111%. `C[N+]1(CC2CCC2)CCc2c(sc(NC(=O)Nc3ccc4ccccc4c3)c2C(N)=O)C1` (stereo not shown) [Example 176, 3-Carbamoyl-6-(cyclobutylmethyl)-6-methyl-2-[3-(naphthalen-2-yl)ureido]-4,5,6,7-tetrahydrothieno[2,3-c]pyridin-6-ium iodide]: the EC50 was less than 1000 nM. Further, the Emax at 8.3 µM under setting [1] turned out to be 100%.

On to `CC[N+]1(C)CCc2c(sc(NC(=O)Nc3ccc(Cl)cc3)c2C(=O)N2CCOCC2)C1` (stereo not shown) [Example 179, 2-[3-(4-Chlorophenyl)ureido]-6-ethyl-6-methyl-3-(morpholine-4-carbonyl)-4,5,6,7-tetrahydrothieno[2,3-c]pyridin-6-ium chloride], for which the Emax at 8.3 µM under setting [1] is 38%.

As to `CC[N+]1(C)CCc2c(sc(NC(=O)Nc3ccc4cc(F)ccc4c3)c2C(N)=O)C1` (stereo not shown) [Example 180, 3-Carbamoyl-6-ethyl-2-[3-(6-fluoronaphthalen-2-yl)ureido]-6-methyl-4,5,6,7-tetrahydrothieno[2,3-c]pyridin-6-ium iodide], the EC50 is 1000 to 10000 nM. Besides, the Emax at 25 µM under setting [1] was 102%. In the case of `CC(C)C[N+]1(C)CCc2c(sc(NC(=O)Nc3ccc(Cl)c4ccccc34)c2C(N)=O)C1` (stereo not shown) [Example 181, 3-Carbamoyl-2-[3-(4-chloronaphthalen-1-yl)ureido]-6-isobutyl-6-methyl-4,5,6,7-tetrahydrothieno[2,3-c]pyridin-6-ium iodide], the EC50 lay in the range of 1000 to 10000 nM. Besides, the Emax at 25 µM under setting [1] stood at 93%. For `C[N+]1(CC2CCC2)CCc2c(sc(NC(=O)Nc3ccc(Cl)c4ccccc34)c2C(N)=O)C1` (stereo not shown) [Example 182, 3-Carbamoyl-2-[3-(4-chloronaphthalen-1-yl)ureido]-6-(cyclobutylmethyl)-6-methyl-4,5,6,7-tetrahydrothieno[2,3-c]pyridin-6-ium chloride], the EC50 is 1000 to 10000 nM. The Emax at 83 µM (maximum observed @ 83 μM test compound, 200 micromolar neomycin, read-out: Max HC Protection (HCmax, % hair cell survival)) was determined as 76%.

Turning to `CC(C)(C)C[N+]1(C)CCc2c(sc(NC(=O)Nc3ccc(Cl)c4ccccc34)c2C(N)=O)C1` (stereo not shown) [Example 183, 3-Carbamoyl-2-[3-(4-chloronaphthalen-1-yl)ureido]-6-methyl-6-neopentyl-4,5,6,7-tetrahydrothieno[2,3-c]pyridin-6-ium chloride], the EC50 lay in the range of 1000 to 10000 nM. For the same molecule, the Emax at 8.3 µM under setting [1] was determined as 70%. Take `CC[N+]1(C)CCc2c(sc(NC(N)=O)c2C(N)=O)C1` (stereo not shown) [Example 184, 3-Carbamoyl-6-ethyl-6-methyl-2-ureido-4,5,6,7-tetrahydrothieno[2,3-c]pyridin-6-ium iodide]: the Emax at 25 µM under setting [1] stood at 30%. Consider `CC[N+]1(C)CCc2c(sc(NC(=O)N(C)c3ccc(Cl)cc3)c2C(N)=O)C1` (stereo not shown) [Example 185, 3-Carbamoyl-2-[3-(4-chlorophenyl)-3-methylureido]-6-ethyl-6-methyl-4,5,6,7-tetrahydrothieno[2,3-c]pyridin-6-ium chloride], for which the Emax at 2.8 µM under setting [1] turned out to be 16%. For the molecule `CC[N+]1(CC2CCC2)CCc2c(sc(NC(=O)Nc3ccc(Cl)cc3)c2C(N)=O)C1` (stereo not shown) [Example 190, 3-carbamoyl-2-[3-(4-chlorophenyl)ureido]-6-(cyclobutylmethyl)-6-ethyl-4,5,6,7-tetrahydrothieno[2,3-c]pyridin-6-ium chloride], the EC50 is less than 1000 nM. Moreover, the Emax at 2.8 µM under setting [1] came out at 100%. Turning to `CC(C)[N+]1(C)CCc2c(sc(NC(=O)Nc3ccc(Cl)cc3)c2C(N)=O)C1` (stereo not shown) [Example 191, 3-Carbamoyl-2-[3-(4-chlorophenyl)ureido]-6-isopropyl-6-methyl-4,5,6,7-tetrahydrothieno[2,3-c]pyridin-6-ium iodide], the EC50 was less than 1000 nM. The Emax at 8.3 µM under setting [1] is 80%. For the molecule `C[N+]1(CC(F)(F)F)CCc2c(sc(NC(=O)Nc3ccc(Cl)cc3)c2C(N)=O)C1` (stereo not shown) [Example 192, 3-Carbamoyl-2-[3-(4-chlorophenyl)ureido]-6-methyl-6-(2,2,2-trifluoroethyl)-4,5,6,7-tetrahydrothieno[2,3-c]pyridin-6-ium iodide], the EC50 was less than 1000 nM. Under setting [1], the Emax at 25 µM stood at 88%. In the case of `CC(C)(C)C[N+]1(C)CCc2c(sc(NC(=O)Nc3ccc4ccccc4c3)c2C(N)=O)C1` (stereo not shown) [Example 193, 3-Carbamoyl-6-methyl-2-(3-naphthalen-2-ylureido)-6-neopentyl-4,5,6,7-tetrahydrothieno[2,3-c]pyridin-6-ium trifluoroacetate], the EC50 is less than 1000 nM. Also, the Emax at 25 µM under setting [1] stood at 98%.

In the case of `CN(C)C(=O)CC[N+]1(C)CCc2c(sc(NC(=O)Nc3ccc(Cl)cc3)c2C(N)=O)C1` (stereo not shown) [Example 194, 3-Carbamoyl-2-[3-(4-chlorophenyl)ureido]-6-[3-(dimethylamino)-3-oxopropyl]-6-methyl-4,5,6,7-tetrahydrothieno[2,3-c]pyridin-6-ium chloride], under setting [1], the Emax at 2.8 µM worked out at 36%.

With `CC[N+]1(CC2CCCCC2)CCc2c(sc(NC(=O)Nc3ccc(Cl)cc3)c2C(N)=O)C1` (stereo not shown) [Example 195, 3-Carbamoyl-2-[3-(4-chlorophenyl)ureido]-6-(cyclohexylmethyl)-6-ethyl-4,5,6,7-tetrahydrothieno[2,3-c]pyridin-6-ium trifluoroacetate], the EC50 is less than 1000 nM. Where the note is “maximum observed @ 0.9 μM test compound, 200 micromolar neomycin, read-out: Max HC Protection (HCmax, % hair cell survival)”, the Emax at 0.9 µM turned out to be 74%. `CC1(C[N+]2(C)CCc3c(sc(NC(=O)Nc4ccc(Cl)cc4)c3C(N)=O)C2)CC1` (stereo not shown) [Example 196, 3-Carbamoyl-2-[3-(4-chlorophenyl)ureido]-6-methyl-6-[(1-methylcyclopropyl)methyl]-4,5,6,7-tetrahydrothieno[2,3-c]pyridin-6-ium trifluoroacetate]: the EC50 was less than 1000 nM. Besides, the Emax at 2.8 µM under setting [1] was found to be 85%. With `C[N+]1(CC23CC4CC(CC(C4)C2)C3)CCc2c(sc(NC(=O)Nc3ccc(Cl)cc3)c2C(N)=O)C1` (stereo not shown) [Example 197, 6-[(3r,5r,7r)-Adamantan-1-ylmethyl]-3-carbamoyl-2-[3-(4-chlorophenyl)ureido]-6-methyl-4,5,6,7-tetrahydrothieno[2,3-c]pyridin-6-ium chloride], the EC50 is less than 1000 nM. Also, under setting [1], the Emax at 2.8 µM turned out to be 93%. The matching figures for `CC[N+]1(CCCC(=O)OC(C)(C)C)CCc2c(sc(NC(=O)Nc3ccc(Cl)cc3)c2C(N)=O)C1` (stereo not shown) [Example 198, 6-[4-(tert-Butoxy)-4-oxobutyl]-3-carbamoyl-2-[3-(4-chlorophenyl)ureido]-6-ethyl-4,5,6,7-tetrahydrothieno[2,3-c]pyridin-6-ium trifluoroacetate]: less than 1000 nM and 89%. For `CC(C)(C)OC(=O)CCC[N+]1(CC2CCC2)CCc2c(sc(NC(=O)Nc3ccc(Cl)cc3)c2C(N)=O)C1` (stereo not shown) [Example 199, 6-[4-(tert-Butoxy)-4-oxobutyl]-3-carbamoyl-2-[3-(4-chlorophenyl)ureido]-6-(cyclobutylmethyl)-4,5,6,7-tetrahydrothieno[2,3-c]pyridin-6-ium trifluoroacetate], the EC50 was less than 1000 nM. Moreover, for the setting “maximum observed @ 0.3 μM test compound, 200 micromolar neomycin, read-out: Max HC Protection (HCmax, % hair cell survival)”, the Emax at 0.3 µM is 68%. As to `CC[N+]1(CC(C)C)CCc2c(sc(NC(=O)Nc3ccc(Cl)cc3)c2C(N)=O)C1` (stereo not shown) [Example 200, 3-Carbamoyl-2-[3-(4-chlorophenyl)ureido]-6-ethyl-6-isobutyl-4,5,6,7-tetrahydrothieno[2,3-c]pyridin-6-ium chloride], the EC50 was less than 1000 nM. Also, the Emax at 2.8 µM under setting [1] is 97%.
